Tests used:
[1] = system: Oc1ccc(O)cc1; assay: purified protein, by the assay type; conditions: pH 7.5; 37.0 °C
[2] = system: O=C(O)c1ccc(O)cc1; assay: purified protein, by the assay type; conditions: other: pHBA 0.2 to 400 μM, fitted to Michaelis-Menten equation; 25.0 °C
[3] = molecular target: T1, arbutin synthase (Rauvolfia serpentina, UniProt Q9AR73); conditions: 50° C., 1 mM hydroquinone; cited from earlier work
[4] = molecular target: UGT72B1 (Arabidopsis thaliana, UniProt Q9M156, E284K/I310V/T253S)
Procedure: The enzyme was diluted to a final concentration of 0.115 ng/μL using 50 mM Tris HCl (pH 7.5), 1 mM MgCl2 and 2 mM DTT. […] Arbutin formation was quantitated by HPLC analysis as follows: 10 μL of analyte were separated on a Nova-Pak® C18 column (60 Å pore size, […]) using a gradient from 2% acetonitrile, 1.5% phosphoric acid (solvent A) to 48% acetonitrile, 1.5% phosphoric acid (solvent B). The following solvent gradient is applied: 0–5 min 100% solvent A; 5–20 min linear gradient of 0–100% solvent B; 21–25 min 100% solvent A. Arbutin was detected at 221 nm absorbance wavelength and quantitated using calibration curves generated with a commercially available standard of arbutin.
The data was fitted to the Michaelis-Menten equation. […] In this plot, an estimate of the Km is provided as the slope of the line representing the linear regression curve through the points and the Vmax by the intercept of the regression curve with the y axis.
(§1) This turnover number was calculated using a molecular weight of the UGT72B1 enzyme of 53,015.33 Da calculated with the PEPIDESORT software package of the GCG.

[5] = molecular target: T1, arbutin synthase; conditions: 50° C., converted from cited Vmax using 51,793.01 Da
Procedure: as §1

[6] = molecular target: T2, UGT72B1 (Arabidopsis thaliana, UniProt Q9M156); conditions: highest of the benzoic acid derivatives analyzed; cited from earlier work
T2 construct: host or cells: E. coli (per the cited work)
T2 sequence (Q9M156 1-480): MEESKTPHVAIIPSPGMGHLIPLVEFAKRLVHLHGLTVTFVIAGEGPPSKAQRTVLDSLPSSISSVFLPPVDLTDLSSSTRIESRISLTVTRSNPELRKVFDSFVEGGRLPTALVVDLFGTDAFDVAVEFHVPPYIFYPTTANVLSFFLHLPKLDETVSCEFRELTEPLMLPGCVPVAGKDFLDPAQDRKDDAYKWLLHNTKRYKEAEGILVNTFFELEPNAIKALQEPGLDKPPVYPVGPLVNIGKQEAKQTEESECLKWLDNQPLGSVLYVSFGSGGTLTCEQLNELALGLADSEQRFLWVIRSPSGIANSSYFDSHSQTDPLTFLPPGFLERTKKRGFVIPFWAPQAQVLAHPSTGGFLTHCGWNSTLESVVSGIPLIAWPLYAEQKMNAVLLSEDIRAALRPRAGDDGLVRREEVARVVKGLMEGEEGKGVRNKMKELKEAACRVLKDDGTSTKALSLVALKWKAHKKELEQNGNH

## UGT72B1 (Arabidopsis thaliana; E284K/I310V/T253S)
[1]
  Km: 0.3 µM

## pHBA 1-hydroxylase (Lodderomyces parapsilosis CDC317)
[2]
  Km: 0.31 µM
  Vmax: 6.4 µmol/min/mg

## Oc1ccc(O)cc1 [hydroquinone, 1,4-dihydroxybenzene]
[3]
  Vmax: 26.32 pkat/μg
[4]
  apparent Km: ~0.3 µM
[4]; Michaelis-Menten plot, FIG. 5
  hydroquinone concentration giving significant substrate inhibition: greater than 100 μM
[4]; compared with Lim et al. values
  Vmax with hydroquinone relative to Vmax with benzoic acid substrates: ~68 fold
[4]; hydroquinone as substrate, 20 mM UDPG, 37° C., Hofstee plot
  apparent Vmax: ~796 pmol/sec/1 g
[4]; hydroquinone as substrate, 37° C.
  turnover number (Kcat): 42 s⁻¹
[5]
  turnover number: 1.4 s⁻¹

## O=C(O)c1cc(O)ccc1O [2,5-dihydroxybenzoic acid]
[6]
  specific activity: 11.72 pkat/μg protein

Source: patent US7217810B2, “High level production of arbutin in green plants and microbes” (E. I. du Pont de Nemours and Company, priority 2003, dated 2007)
